Measurements: PMC12396409, “Screening and hit evaluation of a microbial metabolite library against the pathogenic Plasmodium falciparum and Toxoplasma gondii parasites” (International Journal for Parasitology: Drugs and Drug …, 2025)
Like-named read-outs stand apart in the source and are kept apart here.

Legend:
[1] = tested on: T. gondii RH strain (RH-Tub-eYFP) tachyzoites; assay: microbe, parasite or virus in culture; assay type: cell-based, Toxoplasma gondii; details: 72 h, 72 h; for percent parasite growth at 2 µg/mL: Toxoplasma gondii
[2] = tested on: P. falciparum 3D7 parasites; assay: P. falciparum growth inhibition assay, 1-cycle (72 h treatment), SYBR DNA staining (library screen at 2 μg/mL and dose-response); assay type: cell-based, Plasmodium falciparum; details: for activity at 2 µg/mL: Plasmodium falciparum
[3] = tested on: P. falciparum 3D7 parasites; assay: P. falciparum growth inhibition assay, 2-cycle (120 h treatment), delayed-death screen and dose-response; assay type: cell-based, Plasmodium falciparum; details: for activity at 2 µg/mL: Plasmodium falciparum
[4] = T. gondii, screen at 2 μg/mL, replicate 1, read-out: Tg_72h_%Growth_Rep1
[5] = T. gondii, screen at 2 μg/mL, replicate 2, read-out: Tg_72h_%Growth_Rep2
[6] = 3D7, P. falciparum, 72 h, screen at 2 μg/mL, replicate 1, read-out: Pf_72h_%Growth_Rep1
[7] = 3D7, P. falciparum, 72 h, screen at 2 μg/mL, replicate 2, read-out: Pf_72h_%Growth_Rep2
[8] = 3D7, P. falciparum, 120 h, screen at 2 μg/mL, replicate 1, read-out: Pf_120h_%Growth_Rep1
[9] = 3D7, P. falciparum, 120 h, screen at 2 μg/mL, replicate 2, read-out: Pf_120h_%Growth_Rep2
[10] = T. gondii, screen at 2 μg/mL, replicate 1
[11] = T. gondii, screen at 2 μg/mL, replicate 2
[12] = P. falciparum, 72 h, screen at 2 μg/mL, replicate 1
[13] = P. falciparum, 72 h, screen at 2 μg/mL, replicate 2
[14] = P. falciparum, 120 h, screen at 2 μg/mL, replicate 1
[15] = P. falciparum, 120 h, screen at 2 μg/mL, replicate 2

For CCCCCCCCCCC[C@@H](C[C@@H]1OC(=O)[C@H]1CCCCCC)OC(=O)[C@H](CC(C)C)NC=O [Tetrahydrolipstatin], the percent parasite growth at 2 µg/mL [1, 4] was 88.5%, the percent parasite growth at 2 µg/mL [1, 5] was 98.4% and the activity at 2 µg/mL [2, 6] was 74.2%. For the same compound, the activity at 2 µg/mL [2, 7] was 88.8%, the activity at 2 µg/mL [3, 8] was 171% and the activity at 2 µg/mL [3, 9] was 93.3%.

In the case of C=CC[C@@H]1/C=C(\C)C[C@H](C)C[C@H](OC)[C@H]2O[C@@](O)(C(=O)C(=O)N3CCCC[C@H]3C(=O)O[C@H](/C(C)=C/[C@@H]3CC[C@@H](O)[C@H](OC)C3)[C@H](C)[C@@H](O)CC1=O)[C@H](C)C[C@@H]2OC [Tacrolimus], the percent parasite growth at 2 µg/mL ([1]; T. gondii, parasite screen 2 μg/mL, % growth, replicate 1, read-out: Tg_72h_%Growth_Rep1) is reported as 102%, the percent parasite growth at 2 µg/mL ([1]; T. gondii, parasite screen 2 μg/mL, % growth, replicate 2, read-out: Tg_72h_%Growth_Rep2) is reported as 79.4% and the activity at 2 µg/mL ([2]; 3D7, 72 h, P. falciparum, 72 h, parasite screen 2 μg/mL, % growth, replicate 1, read-out: Pf_72h_%Growth_Rep1) is reported as 56.9%. The activity at 2 µg/mL ([2]; 3D7, 72 h, P. falciparum, 72 h, parasite screen 2 μg/mL, % growth, replicate 2, read-out: Pf_72h_%Growth_Rep2) was 41.7%, the activity at 2 µg/mL ([3]; 3D7, 120 h, P. falciparum, 120 h, parasite screen 2 μg/mL, % growth, replicate 1, read-out: Pf_120h_%Growth_Rep1) was 49.7% and the activity at 2 µg/mL ([3]; 3D7, 120 h, P. falciparum, 120 h, parasite screen 2 μg/mL, % growth, replicate 2, read-out: Pf_120h_%Growth_Rep2) was 41%.

C[C@H]1O[C@H](O[C@H]2[C@H](O)[C@@H](O)[C@@H](O[C@H]3[C@H](O)[C@@H](O)C(O)O[C@@H]3CO)O[C@@H]2CO)[C@H](O)[C@@H](O)[C@@H]1N[C@H]1C=C(CO)[C@@H](O)[C@H](O)[C@H]1O (stereo partly drawn) [Acarbose] was tested, and the percent parasite growth at 2 µg/mL ([1]; library screen at 2 μg/mL, % growth, replicate 1, read-out: Tg_72h_%Growth_Rep1) was 105%, the percent parasite growth at 2 µg/mL ([1]; library screen at 2 μg/mL, % growth, replicate 2, read-out: Tg_72h_%Growth_Rep2) was 86.3% and the activity at 2 µg/mL ([2]; 3D7, library screen at 2 μg/mL, 72 h, % growth, replicate 1, read-out: Pf_72h_%Growth_Rep1) was 83.3%. For the same compound, the activity at 2 µg/mL ([2]; 3D7, library screen at 2 μg/mL, 72 h, % growth, replicate 2, read-out: Pf_72h_%Growth_Rep2) was 87.2%, the activity at 2 µg/mL ([3]; 3D7, library screen at 2 μg/mL, 120 h, % growth, replicate 1, read-out: Pf_120h_%Growth_Rep1) was 85.5% and the activity at 2 µg/mL ([3]; 3D7, library screen at 2 μg/mL, 120 h, % growth, replicate 2, read-out: Pf_120h_%Growth_Rep2) was 82.2%.

Work on CN[C@H]1C(=O)N[C@@H]2Cc3ccc(cc3)Oc3cc4cc(c3O[C@@H]3O[C@H](C(=O)O)[C@@H](O)[C@H](O)[C@H]3NC(=O)CCCCCCCCC(C)C)Oc3ccc(cc3Cl)[C@@H](O)[C@@H]3NC(=O)[C@H](NC(=O)[C@@H]4NC(=O)[C@@H](NC2=O)c2cc(cc(O)c2Cl)Oc2cc1ccc2O)c1ccc(O)c(c1)-c1c(O[C@H]2O[C@H](CO)[C@@H](O)[C@H](O)[C@@H]2O)cc(O)cc1[C@@H](C(=O)NCCCN(C)C)NC3=O [Dalbavancin] yielded a Tg_72h_%Growth_Rep1 [1, 10] of 148.88%, a Tg_72h_%Growth_Rep2 [1, 11] of 101.28% and a Pf_72h_%Growth_Rep1 [2, 12] of 84.83%. It also gave a Pf_72h_%Growth_Rep2 [2, 13] of 84.70%, a Pf_120h_%Growth_Rep1 [3, 14] of 61.95% and a Pf_120h_%Growth_Rep2 [3, 15] of 91.53%.

CCC(C=CC1OC(=O)C=CC1C)=CC(C)CC=CC(C)=CC(C)C(=O)C(C)C(O)C(C)CC(C)=CC(=O)O (stereo not drawn) [BIA-L1046] gave a Tg_72h_%Growth_Rep1 ([1]; T. gondii RH, library screen at 2 μg/mL, % growth, replicate 1) of 1.37%, a Tg_72h_%Growth_Rep2 ([1]; T. gondii RH, library screen at 2 μg/mL, % growth, replicate 2) of 0.53% and a Pf_72h_%Growth_Rep1 ([2]; P. falciparum 3D7, 72 h, library screen at 2 μg/mL, % growth, replicate 1) of 6.41%. The Pf_72h_%Growth_Rep2 ([2]; P. falciparum 3D7, 72 h, library screen at 2 μg/mL, % growth, replicate 2) was 2.57%, the Pf_120h_%Growth_Rep1 ([3]; P. falciparum 3D7, 120 h, library screen at 2 μg/mL, % growth, replicate 1) was 2.03% and the Pf_120h_%Growth_Rep2 ([3]; P. falciparum 3D7, 120 h, library screen at 2 μg/mL, % growth, replicate 2) was 15.00%.

Compound O=C1NC(c2c[nH]c3ccc(O)cc23)=C/C1=C1\C(=O)Nc2ccccc21 [Violacein] has a percent parasite growth at 2 µg/mL [1, 4] of 85.9%, a percent parasite growth at 2 µg/mL [1, 5] of 106% and an activity at 2 µg/mL [2, 6] of 83.3%. The activity at 2 µg/mL [2, 7] was 90.2%, the activity at 2 µg/mL [3, 8] was 170% and the activity at 2 µg/mL [3, 9] was 91.7%.

C=C1[C@@H](C)[C@H]2[C@H](Cc3ccccc3)NC(=O)[C@]23[C@H](OC(C)=O)[C@@H]2O[C@H]2[C@@](C)(O)C(=O)[C@@H](C)C/C=C\[C@H]3[C@@H]1O [Epoxycytochalasin D, 19,20-] was tested, and the Tg_72h_%Growth_Rep1 ([1]; library screen at 2 μg/mL, % growth, replicate 1) was 2.15%, the Tg_72h_%Growth_Rep2 ([1]; library screen at 2 μg/mL, % growth, replicate 2) was 1.47% and the Pf_72h_%Growth_Rep1 ([2]; library screen at 2 μg/mL, 72 h, % growth, replicate 1) was 5.59%. It also gave a Pf_72h_%Growth_Rep2 ([2]; library screen at 2 μg/mL, 72 h, % growth, replicate 2) of 1.64%, a Pf_120h_%Growth_Rep1 ([3]; library screen at 2 μg/mL, 120 h, % growth, replicate 1) of 6.52% and a Pf_120h_%Growth_Rep2 ([3]; library screen at 2 μg/mL, 120 h, % growth, replicate 2) of -0.52%.

In the case of CC(C)C(=O)N[C@H](CO)[C@H](O)c1ccc([N+](=O)[O-])cc1 [Corynecin III], the Tg_72h_%Growth_Rep1 [1, 10] is reported as 93.46%, the Tg_72h_%Growth_Rep2 [1, 11] is reported as 102.63% and the Pf_72h_%Growth_Rep1 [2, 12] is reported as 86.99%. For the same compound, the Pf_72h_%Growth_Rep2 [2, 13] was 97.15%, the Pf_120h_%Growth_Rep1 [3, 14] was 87.60% and the Pf_120h_%Growth_Rep2 [3, 15] was 90.07%.
